Among the test systems are ACHN renal; SNB-19 CNS; OVCAR-5 ovarian; IGROV1 ovarian; SR leukemia; DU-145 prostate; HCT-116 colon; HCC-2998 colon; SF-268 CNS; SK-MEL-28 melanoma; HOP-62 NSCLC; SF-539 CNS; A498 renal; SW-620 colon; NCI-H226 lung.
Common to all, as to assay: growth of human tumour cells (NCI), 48 h

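Each compound was tested at five concentrations against cells in 96-well plates for 48 hours. TGI is the concentration that stops growth completely.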

Consider `O=C1/C(=C/c2c(Cl)[nH]c3ccccc23)c2ccccc2N1c1ccccc1`, for which the TGI in the experiment with ACHN renal is 57.2 µM; with SNB-19 CNS, greater than 100 µM; with OVCAR-5 ovarian, 81.9 µM; with IGROV1 ovarian, 39.1 µM; with SR leukemia it was 19.6 µM; in the experiment with DU-145 prostate, 32.9 µM. The TGI was 15.6 µM in the experiment on HCT-116 colon; 20.7 µM in the experiment on HCC-2998 colon; 33.2 µM in the experiment on SF-268 CNS; 23.8 µM with SK-MEL-28 melanoma; 26.1 µM in the experiment on HOP-62 NSCLC; 7.44 µM with SF-539 CNS. In addition, the TGI with A498 renal is 40.8 µM; in the experiment on SW-620 colon, 41.7 µM.
For `CCOC(=O)Nc1nn(C)c(=NCc2ccccc2)s1`, the TGI with ACHN renal, in the experiment on SNB-19 CNS, with OVCAR-5 ovarian, in the experiment on IGROV1 ovarian, with SR leukemia and in the experiment with DU-145 prostate was greater than 100 µM each time. Also, the TGI in the experiment with HCT-116 colon, with SK-MEL-28 melanoma, with HOP-62 NSCLC, with SF-539 CNS, with A498 renal and in the experiment with SW-620 colon was greater than 100 µM each time.
With `CCCCOCCOC1=CC(=O)c2c(O)ccc(O)c2C1=O`, the TGI in the experiment with ACHN renal was 3.1 µM; with SNB-19 CNS it was 3.12 µM; in the experiment on NCI-H226 lung it was 3.14 µM; in the experiment with IGROV1 ovarian, 3.35 µM; with SR leukemia, 5.11 µM; with DU-145 prostate, 3.17 µM. The TGI in the experiment on HCT-116 colon was 2.85 µM; in the experiment with HCC-2998 colon, 3.3 µM; with SF-268 CNS, 3.65 µM; in the experiment on SK-MEL-28 melanoma, 3 µM; in the experiment on HOP-62 NSCLC, 1.8 µM; in the experiment with SF-539 CNS it was 2.94 µM. Besides, the values for the TGI in the experiment with A498 renal and in the experiment on SW-620 colon were 3 µM and 2.84 µM, respectively.
`O=C(CCCN1CCC2(CC1)CC(=O)N(N1CCCCCC1)C2=O)c1ccc(F)cc1`: the TGI in the experiment with ACHN renal, in the experiment with OVCAR-5 ovarian, with IGROV1 ovarian, in the experiment on SR leukemia, in the experiment on DU-145 prostate and in the experiment on HCT-116 colon was greater than 100 µM throughout. The TGI with SF-268 CNS, with SK-MEL-28 melanoma, in the experiment on HOP-62 NSCLC, with SF-539 CNS, in the experiment with A498 renal and with SW-620 colon was greater than 100 µM throughout.
Take `COc1ccc(C(=O)/C=C/c2cccnc2)cc1OC`: the TGI came to 26.7 µM with ACHN renal; 27.6 µM in the experiment on SNB-19 CNS; 24.8 µM with NCI-H226 lung; 24.6 µM with OVCAR-5 ovarian; 21.9 µM in the experiment with IGROV1 ovarian; 6.02 µM with SR leukemia. Moreover, the TGI with DU-145 prostate was determined as 27.8 µM; with HCT-116 colon it was 16.3 µM; in the experiment with SF-268 CNS, 26.7 µM; in the experiment with SK-MEL-28 melanoma, 33.1 µM; in the experiment with HOP-62 NSCLC, 28.2 µM; in the experiment on SF-539 CNS it was 6.4 µM. The same molecule displayed a TGI in the experiment with A498 renal of 27.8 µM.
`NC(CCCCNC(=O)CNC(=O)OCc1ccccc1)C(=O)NC(CCCCNC(=O)CNC(=O)OCc1ccccc1)C(=O)NC(CCCCNC(=O)CNC(=O)OCc1ccccc1)C(=O)NC(CCCCNC(=O)CNC(=O)OCc1ccccc1)C(=O)NC(CCCCNC(=O)CNC(=O)OCc1ccccc1)C(=O)NC(CCCCNC(=O)CNC(=O)OCc1ccccc1)C(=O)O` (configuration not stated): the TGI in the experiment with ACHN renal, in the experiment on SNB-19 CNS, in the experiment with NCI-H226 lung, in the experiment with OVCAR-5 ovarian, in the experiment with IGROV1 ovarian and with SR leukemia was greater than 75 µM in each case. The TGI with DU-145 prostate, in the experiment on HCT-116 colon, with HCC-2998 colon, in the experiment on SF-268 CNS, with SK-MEL-28 melanoma and in the experiment with HOP-62 NSCLC was greater than 75 µM in each case. Also, the TGI in the experiment with A498 renal and with SW-620 colon was greater than 75 µM in each case.
Consider `N#Cc1[nH]c(=O)n(-c2cccc3ccccc23)c1N`, for which the TGI in the experiment on ACHN renal, in the experiment with SNB-19 CNS, in the experiment with OVCAR-5 ovarian, with IGROV1 ovarian, in the experiment with SR leukemia and with DU-145 prostate was greater than 10 µM each time. In addition, the TGI in the experiment with HCT-116 colon, in the experiment on HCC-2998 colon, in the experiment with SF-268 CNS, in the experiment on SK-MEL-28 melanoma, in the experiment on HOP-62 NSCLC and in the experiment on SF-539 CNS was greater than 10 µM in each case. The TGI in the experiment with A498 renal and in the experiment with SW-620 colon was greater than 10 µM in each case.
`COc1ccc(C2(O)c3ccccc3C(=O)N(C)C2(O)c2ccc(OC)cc2)cc1` (configuration not stated): the TGI with SNB-19 CNS, in the experiment on OVCAR-5 ovarian, with IGROV1 ovarian, in the experiment with SR leukemia, in the experiment with DU-145 prostate and with HCT-116 colon was greater than 100 µM in each case. Besides, the TGI in the experiment on HCC-2998 colon, in the experiment on SF-268 CNS, in the experiment with SK-MEL-28 melanoma, with HOP-62 NSCLC, in the experiment on SF-539 CNS and in the experiment with A498 renal was greater than 100 µM each time. Also, the TGI with SW-620 colon is greater than 100 µM.
For `COc1cc(/C=C2\C(=O)N(Cc3ccccc3)C(c3ccccc3)S2(=O)=O)cc(OC)c1OC` (configuration not stated), the TGI was greater than 100 µM in the experiment with ACHN renal; greater than 100 µM in the experiment with SNB-19 CNS; greater than 100 µM in the experiment with NCI-H226 lung; greater than 100 µM with OVCAR-5 ovarian; 65.5 µM in the experiment on SR leukemia; greater than 100 µM in the experiment with DU-145 prostate. In addition, the TGI with HCT-116 colon, with HCC-2998 colon, in the experiment on SF-268 CNS, in the experiment with SK-MEL-28 melanoma, in the experiment with HOP-62 NSCLC and with A498 renal was greater than 100 µM in each case. In the experiment with SW-620 colon, the TGI was greater than 100 µM.
For the molecule `O=C1CCCCC/C1=C\c1ccc(Cl)cc1`, the TGI with ACHN renal, in the experiment with SNB-19 CNS, in the experiment with NCI-H226 lung, with OVCAR-5 ovarian, in the experiment with IGROV1 ovarian and in the experiment with SR leukemia was greater than 100 µM throughout. For the same molecule, the TGI is greater than 100 µM in the experiment with DU-145 prostate; greater than 100 µM with HCT-116 colon; 96.2 µM with HCC-2998 colon; 55.5 µM in the experiment with SF-268 CNS; greater than 100 µM in the experiment with SK-MEL-28 melanoma; greater than 100 µM in the experiment on HOP-62 NSCLC. Besides, the TGI in the experiment with A498 renal was greater than 100 µM; in the experiment on SW-620 colon, 61.2 µM.
Regarding `O=C(/C=C/c1ccc(Cl)cc1)c1cccs1`, the TGI in the experiment on ACHN renal is 37.5 µM; in the experiment on SNB-19 CNS, 33.4 µM; with NCI-H226 lung, 44.5 µM; in the experiment with IGROV1 ovarian, 75.3 µM; with SR leukemia it was 50.5 µM; in the experiment with DU-145 prostate, greater than 100 µM. The TGI was 33.8 µM in the experiment on HCT-116 colon; 37.5 µM in the experiment with HCC-2998 colon; 75.9 µM in the experiment with SF-268 CNS; 54.2 µM with SK-MEL-28 melanoma; 89.8 µM with HOP-62 NSCLC; greater than 100 µM with SF-539 CNS. The TGI in the experiment with A498 renal came to 56 µM; in the experiment with SW-620 colon, 30.4 µM.
Turning to `CC(C)(C)[Si](C)(C)OCCOCn1cc(F)c(=O)[nH]c1=O`, the TGI with ACHN renal, in the experiment on SNB-19 CNS, with NCI-H226 lung, with OVCAR-5 ovarian, in the experiment on IGROV1 ovarian and in the experiment on SR leukemia was greater than 100 µM in each case. Also, the TGI in the experiment with DU-145 prostate, in the experiment with HCT-116 colon, in the experiment with SF-268 CNS, with HOP-62 NSCLC, in the experiment on SF-539 CNS and with A498 renal was greater than 100 µM in each case. The same molecule came in with a TGI in the experiment on SW-620 colon greater than 100 µM.
`O=C(CNC(=O)OCc1ccccc1)NCCCCC(NC(=O)OCc1ccccc1)C(=O)NC(CCCCNC(=O)CNC(=O)OCc1ccccc1)C(=O)OCc1ccccc1` (configuration not stated): the TGI in the experiment on ACHN renal, in the experiment on SNB-19 CNS, in the experiment with NCI-H226 lung, in the experiment on OVCAR-5 ovarian, in the experiment with IGROV1 ovarian and in the experiment with SR leukemia was greater than 62.5 µM in each case. Besides, the TGI in the experiment on DU-145 prostate, in the experiment on HCT-116 colon, with HCC-2998 colon, in the experiment on SF-268 CNS, in the experiment on SK-MEL-28 melanoma and with HOP-62 NSCLC was greater than 62.5 µM each time. Also, the TGI in the experiment on A498 renal and in the experiment with SW-620 colon was greater than 62.5 µM throughout.
On to `O=C1NC(=O)C(COCc2ccccc2)C2=C1SCCC2` (configuration not stated), for which the TGI in the experiment with ACHN renal, with SNB-19 CNS, with NCI-H226 lung, in the experiment with IGROV1 ovarian, in the experiment on SR leukemia and with DU-145 prostate was greater than 100 µM in each case. For the same molecule, the TGI in the experiment on HCT-116 colon, with HCC-2998 colon, in the experiment on SF-268 CNS, in the experiment with SK-MEL-28 melanoma, in the experiment with HOP-62 NSCLC and in the experiment with SF-539 CNS was greater than 100 µM each time. In addition, the TGI with A498 renal and in the experiment with SW-620 colon was greater than 100 µM each time.
Turning to `Oc1ccc(/C=C/c2ccc3cccc(O)c3n2)cc1O`, the TGI in the experiment on ACHN renal was 20.7 µM; in the experiment on SNB-19 CNS, 20.9 µM; with OVCAR-5 ovarian, 46.3 µM; in the experiment with IGROV1 ovarian it was greater than 100 µM; with SR leukemia, 18.6 µM; in the experiment on DU-145 prostate, 12.3 µM. Further, the TGI with HCT-116 colon was 14.5 µM; with HCC-2998 colon, 26.9 µM; in the experiment with SF-268 CNS it was greater than 100 µM; with SK-MEL-28 melanoma, 89.5 µM; with HOP-62 NSCLC, 84.6 µM; in the experiment with SF-539 CNS it was 9.46 µM. Besides, the TGI with A498 renal is 30 µM; with SW-620 colon, greater than 100 µM.
